Measured values as given in patent US20240216513A1, “FATTY ACID-BIFUNCTIONAL DEGRADER CONJUGATES AND THEIR METHODS OF USE” (Novartis AG, priority 2021, published 2024).
Read-outs that look alike come from different tables or passages of the source.

Legend:
[1] = BTK FAC plasma stability assay, rat plasma; type: in vitro ADME; settings: incubation to 24 h
In short: (§1)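 Compound from a 500 µM acetonitrile:water working solution was spiked into K3-EDTA plasma or Dulbecco's PBS and incubated with shaking at 38 °C. Samples taken at 0, 2, 6 and 24 h were precipitated with cold acetonitrile containing glyburide internal standard. Semi-quantitative LC-MS/MS used analyte:internal standard peak area ratios.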

[2] = BTK FAC plasma stability assay, mouse plasma; type: in vitro ADME; settings: incubation to 24 h
In short: as §1

[3] = target: T1, BTK C481S (Homo sapiens, UniProt Q06187, C481S); assay: PD screen in TMD8 BTK C481S mutant tumor-bearing mice, BTK levels and compound concentrations in blood and tumor; type: in vivo, mouse; settings: 20 mgL/kg (unconjugated V)
T1 construct: endogenous in cells; host or cells: TMD8 BTK C481S mutant tumour xenografts in mice
T1 sequence (Q06187 whole entry C481S): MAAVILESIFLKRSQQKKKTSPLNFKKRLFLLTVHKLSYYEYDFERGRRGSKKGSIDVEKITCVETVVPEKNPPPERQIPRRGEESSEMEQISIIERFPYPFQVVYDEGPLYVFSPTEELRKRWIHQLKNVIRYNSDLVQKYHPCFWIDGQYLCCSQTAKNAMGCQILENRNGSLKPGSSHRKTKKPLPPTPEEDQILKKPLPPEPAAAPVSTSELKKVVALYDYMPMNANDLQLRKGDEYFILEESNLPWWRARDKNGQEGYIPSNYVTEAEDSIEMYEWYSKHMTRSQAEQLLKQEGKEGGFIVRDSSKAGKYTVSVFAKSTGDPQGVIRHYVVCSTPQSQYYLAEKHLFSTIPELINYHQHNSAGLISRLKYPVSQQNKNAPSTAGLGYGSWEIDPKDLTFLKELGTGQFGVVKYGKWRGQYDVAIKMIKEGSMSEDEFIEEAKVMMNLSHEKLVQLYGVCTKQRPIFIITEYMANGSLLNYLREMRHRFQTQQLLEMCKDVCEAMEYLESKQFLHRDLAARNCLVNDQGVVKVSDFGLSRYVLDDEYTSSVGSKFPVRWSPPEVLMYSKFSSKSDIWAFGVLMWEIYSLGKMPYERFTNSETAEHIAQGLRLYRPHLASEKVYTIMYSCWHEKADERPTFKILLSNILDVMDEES
In short: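 Single compound injection in mice bearing TMD8 BTK C481S tumors, groups of 2, with blood and tumor sampled at day 0, 4, 7 and sometimes 10. Compound levels measured by UPLC/MS-MS and BTK levels by Meso Scale Discovery.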

[4] = In vivo pharmacokinetic study in rats (i.v. or s.c.), FAC and payload in blood; set-up: species or system rat; settings: for AUC: male, Sprague-Dawley, rat, whole blood, 1 umol/kg
Description: Pharmacokinetic studies were conducted in male C57/B16 mice; male Sprague-Dawley rats; male Beagle dogs and male Cynomolgus monkeys. 3 animals per group were used for each study performed. All studies were performed in accordance with local animal welfare regulations.
[…] Serial 30 µL blood samples were collected via venipuncture of the tail vein in mouse, and via the cannulated jugular vein in rats at defined timepoints to 216 hours (into EDTA coated tubes).
Each blood sample was precipitated with acetonitrile containing internal standard; samples were mixed and centrifuged (20 minutes 4000 RPM at 4° C.). Supernatant was transferred to a microwell plate and evaporated under nitrogen at 60° C. Residue was resuspended in acetonitrile/water (7:3 v/v); plate sealed and transferred to an ultrasonic bath for 3 minutes, prior to analysis. Quantification was performed by LC-MS/MS (SciexAP16500 Q-trap, Shimadzu Nexera X2) using a Phenomenex Polar RP analytical column (2.5 μm particle size; 50×2 mm). The mobile phase consisted of solvent A (0.1% formic acid in water) and solvent B (0.1% formic acid in acetonitrile). The fatty acid conjugate and API were detected using multiple reaction monitoring.
Data analysis and calculation of non-compartmental pharmacokinetic parameters was
performed using an in-house analysis. Following intravenous administration whole blood clearance was calculated by the dose administered divided by AUC0-inf. Volume of distribution at steady state was calculated as MRT*CL, where MRT is the mean residence time, calculated by AUMC0-inf/AUC0-inf. The half-life (t1/2) of the terminal elimination phase was calculated by 0.693/λ. For both intravenous and subcutaneous administration, the systemic exposures were determined by calculating the area under the blood concentration time curve (AUC) from time zero to the last observed quantifiable concentration (AUClast) by using the linear trapezoidal method and normalised to dose. Extrapolated AUC (AUC0-inf) is calculated by addition of AUClast and AUCtlast-inf; where AUCtlast-inf is calculated based on Clast/λ. The slope of the terminal elimination phase was estimated by linear regression of the terminal data points (minimum 3 points) from a natural log concentration versus time plot of the data. Bioavailability was calculated as the dose normalized ratio of […] AUCinf to intravenous AUCinf (100*[SC AUCinf/SC dose]/[IV AUCinf/IV dose]). Following subcutaneous administration Cmax is calculated as the average maximum observed peak concentration and Tmax is the time associated with the determined Cmax.
For PK experiments, non-tumor bearing mice or rats were treated once (10 mL/kg) with a compound either i.v. or s.c. Serial blood samplings from the tail vein (5-20 μl) were collected during the course of the experiment. For PK/PD experiments in tumor-bearing mice, compound was administered once (10 mL/kg) either i.v. or s.c. Animals were randomized into groups of n=3 and tissue samples were collected at several time points. At the times indicated, animals were anaesthetized by exposure to 2-3% v/v isoflurane in medical oxygen. They were sacrificed without recovering from anesthetic after blood sampling into commercially prepared EDTA coated tubes (Milian, cat #TOM-14C) in order to extract plasma. The tissues were excised, weighted and rapidly frozen in liquid nitrogen. Later, tumors were cryogenic dry pulverized with the CryoPrep™ system (model CP-02, Covaris). For efficacy experiments in ectopic tumor-bearing mice, animals were randomized into groups of n=6 for a mean tumor size of 100 mm^3 and compound was administered either i.v. q3w or s.c. q2w. When implanted in brain, animals were randomized into groups of n=4 for a mean bioluminescence of 1.0-2.0E+06 [p/s]/[ρW/cm^2] and compound was administered i.v. qw. Tumor response were reported with the measures of tumor volumes or bioluminescence from the treatment start. […]

Plasma stability (h) rat [1]: 39.3 h | Plasma stability (h) mouse [2]: 27.1 h | Duration of BTK degradation in mouse ≥90% ([3]; i.v.): <4 days | Payload C0-uM (unconjugated degrader dosed, second payload cell) ([4]; API i.v., species taken as rat, listed as note (1 umol/kg)): 1.1 µM | AUC ([4]; iv, API i.v., species taken as rat, listed as note (1 umol/kg), read-out: Payload AUC-uM.h (unconjugated degrader dosed, second payload cell)): 0.57 µM·h | AUC ([4]; sc, subcutaneous dosing, unconjugated Compound V at 1 umol/kg, read-out: Payload AUC): 0.57 µM·h
SMILES: COc1ccc(C(=O)N2CCC3(CCN(CCc4ccc(-c5cc6c(-c7cc(F)cc(NC(=O)c8ccc(C(C)(C)O)cc8F)c7C)ncnc6[nH]5)cc4)CC3)CC2)cc1N1CCC(=O)NC1=O [Compound V, N-(3-(6-(4-(2-(9-(3-(2,4-Dioxotetrahydropyrimidin-1(2H)-yl)-4-methoxybenzoyl)-3,9-diazaspiro[5.5]undecan-3-yl)ethyl)phenyl)-7H-pyrrolo[2,3-d]pyrimidin-4-yl)-5-fluoro-2-methylphenyl)-2-fluoro-4-(2-hydroxypropan-2-yl)benzamide]
Duration of BTK degradation in mouse ≥90% (days) ([3]; s.c.): Not tolerated
